Measurements reported in paper PMC10053621 (Pharmaceutics, 2023).
Read-outs that look alike come from different tables or passages of the source.

Experiments:
E. coli [1] = experiment: Biofilm formation assay (crystal violet); type: cell-based, Escherichia coli; details: 8 h at 37 °C, absorbance at 550 nm, n = 4
Protocol: E. coli cells were thawed, cultured overnight, and then subcultured. […] To prevent subsequent background staining, the culture medium was removed and washed three times with distilled water. Then, 125 μL of crystal violet solution (0.1%, w/v) was added to the cells, which were incubated for another 10 min. Thereafter, the solution was removed, and the cells were washed with water and dried overnight. Lastly, 125 µL of a 30% acetic acid solution was added to the cells, which were incubated for 10 min to dissolve the film. The absorbance of the cells was then measured using a microplate reader (VERSAmax, Molecular Devices, Sunnyvale, CA, USA) at a wavelength of 550 nm.

[2] = test system: Staphylococcus aureus (S. aureus); experiment: Bacterial growth assay (turbidity, OD600); type: cell-based; details: 100 µg/mL, 1-8 h
Protocol: (§1) The antibacterial effect of FKFL-G2 was evaluated using Escherichia coli (E. coli) DH5α, which is kanamycin-resistant, and Staphylococcus aureus (S. aureus). Bacterial growth was estimated based on turbidity measurements, a commonly used method of evaluating the density of bacteria grown on a solution medium. In this process, E. coli and S. aureus bacteria were thawed, cultured overnight, and subcultured. […] The optical density (OD) of each sample was measured at a wavelength of 600 nm using an ultraviolet–visible spectrophotometer (OPTIZEN QX, Optizen, Daejeon, Republic of Korea).

S. aureus [3] = experiment: Membrane permeabilization assay (NPN); type: cell-based, Staphylococcus aureus; details: 100 µL of 1 mg/mL in 1 mL, 30 min, HEPES pH 7.8, ex 350 / em 429 nm, n = 3
Protocol: (§2) To evaluate the ability of FKFL-G2 to disrupt bacterial cell membranes, the membrane permeabilization assay was performed using N-phenyl-1-naphthylamine (NPN). E. coli and S. aureus bacteria were thawed and cultured overnight at 37 °C while being shaken at 180 rpm. After the absorbance of the bacterial solutions reached an OD600 of 1.0, the bacterial cells were harvested via centrifugation at 3500 rpm for 10 min. The bacterial pellet was washed twice with 4-(2-hydroxyethyl)-1-piperazineethanesulfonic acid (HEPES) buffer (pH 7.8). The bacterial pellets were then subjected to another round of centrifugation at 3500 rpm for 10 min and resuspended in 1 mL of HEPES (pH 7.8) to make bacterial solutions. […] Triton X-100, a well-known surfactant with a high capacity to destroy cell membranes, was used as a control. The fluorescence of each solution was measured using a fluorometer (LS45 Fluorescence Spectrometer, PerkinElmer, Waltham, MA, USA) at an excitation wavelength of 350 nm and emission wavelength of 429 nm.

E. coli [4] = experiment: Membrane permeabilization assay (NPN); type: cell-based, Escherichia coli; details: 100 µL of 1 mg/mL in 1 mL, 30 min, HEPES pH 7.8, ex 350 / em 429 nm, n = 3
Protocol: as §2

[5] = test system: Escherichia coli (E. coli) DH5α, kanamycin-resistant; experiment: Bacterial growth assay (turbidity, OD600); type: cell-based; details: 100 µg/mL, 1-8 h
Protocol: as §1

S. aureus [6] = experiment: Scanning electron microscopy of treated bacteria; type: cell-based, Staphylococcus aureus; details: 8 h at 37 °C
Protocol: (§3) Bacterial morphology with untreated or Amp, Kan, G2, and FKFL-G2-treated was observed using field emission scanning electron microscopy (FE-SEM; S-4800, Hitachi, Tokyo, Japan). E. coli and S. aureus bacteria were cultured and incubated with experimental and control samples for 8 h at 37 °C while being shaken at 225 rpm. Thereafter, 50 µL of the bacterial solution of each culture was placed on a silicon wafer and dried at room temperature. The bacteria-containing wafers were placed on a 24-well plate and treated with 4% paraformaldehyde for 30 min. The surfaces were then washed using various concentrations of ethanol solution 0%, 25%, 50%, 75%, and 99.9%. The washed wafers were coated with platinum for 90 s; after which, and the appearance of bacteria was observed using FE-SEM (S-4800, Hitachi, Tokyo, Japan). The shapes of treated bacterial cells were compared with those of nontreated corresponding bacterial cells.

E. coli [7] = experiment: Scanning electron microscopy of treated bacteria; type: cell-based, Escherichia coli; details: 8 h at 37 °C
Protocol: as §3

E. coli [8] = experiment: Colony-forming unit assay; type: cell-based, Escherichia coli; details: 100 µg/mL, 24 h growth on agar plate, n = 3
Protocol: (§4) A colony-forming unit assay was performed to determine the effect of FKFL-G2 on bacterial colony formation. This process followed the same steps as the turbidity test in Section 2.5. The OD of the cells was measured after 24 h of growth. The cell solution was diluted by a factor of 10^7; after which, 100 µL of the diluted solution was sprayed onto an agar plate and incubated in a shaking incubator for 24 h at 37 °C. The number of colonies produced was then observed.

NIH3T3 cells = test system: NIH3T3 cells
Protocol: NIH3T3 cells were used to evaluate the cytotoxicity of the FKFL-G2 dendrimer. A total of 1.8 × 10^4 cells/well were seeded in a 96-well plate and incubated in 90 µL of Dulbecco’s modified Eagle’s medium, containing 10% (v/v) fetal bovine serum and 1% (w/v) penicillin/streptomycin, for 16 h at 37 °C in a humidified atmosphere containing 5% CO2. […] Each sample in the experimental group was treated with 10 µL of the FKFL-G2 dendrimer at the following concentrations: 12.5, 25, 50, 100, and 200 µg/mL. After 24 h of incubation, 10 µL of EZ-Cytox reagent (WST-8) was added to each well (except for that used as the negative control), which were incubated for a subsequent 2 h. Lastly, the absorbance of the wells measured a data wavelength of 450 nm via a colorimetric enzyme-linked immunosorbent assay (VERSAmax, Molecular Devices, Sunnyvale, CA, USA).

[9] = Zeta potential and mean diameter (Zetasizer Nano ZS, DLS); type: physicochemical; details: for Diameter / Polydispersity (PDI): DLS at RT, repeated three times; for Zeta Potential: room temperature, triplicate
Protocol: The surface charge and the mean diameter of the FKFL-G2 were measured in triplicate and evaluated at various concentrations at room temperature using a Zetasizer Nano ZS (Malvern Panalytical, Malvern, UK).

[10] = Critical aggregation concentration (CAC), Nile red fluorescence; type: physicochemical; details: ex 550 nm, intensity at 650 nm, FKFL-G2 0.001 to 0.9 mg/mL
Protocol: In order to confirm whether FKFL-G2 forms an aggregate by itself, the CAC was measured by fluorescence spectroscopy using Nile red. A 1 mL solution of FKFL-G2 with a concentration range of 0.001 to 0.9 mg/mL was combined with 5 µL of Nile red (1 mM in MeOH) and mixed by vortexing. Subsequently, fluorescence was measured at wavelengths of 550 nm for excitation and 560–760 nm for emission using a fluorometer (LS45, Fluorescence Spectrometer, PerkinElmer), and the fluorescence intensity at 650 nm was analyzed to measure the values of the nanoparticles.

S. aureus [11] = experiment: Colony-forming unit assay; type: cell-based, Staphylococcus aureus; details: 100 µg/mL, 24 h growth on agar plate, n = 3
Protocol: as §4

CC1(C)S[C@@H]2[C@H](NC(=O)[C@H](N)c3ccccc3)C(=O)N2[C@H]1C(=O)O [Ampicillin]
biofilm formation inhibition rate (E. coli [1]): approximately 98% | bacterial growth, OD600 over time (in words) [2]: remained stable

NC[C@H]1O[C@H](O[C@H]2[C@H](O)[C@@H](O[C@H]3O[C@H](CO)[C@@H](O)[C@H](N)[C@H]3O)[C@H](N)C[C@@H]2N)[C@H](O)[C@@H](O)[C@@H]1O [kanamycin, Kanamycin]
membrane permeabilization, NPN fluorescence (in words) (S. aureus [3]): did not show any membrane perturbation effect | membrane permeabilization, NPN fluorescence (in words) (E. coli [4]): did not show any membrane perturbation effect | biofilm formation inhibition rate (E. coli [1]): 75% | bacterial growth, OD600 over time (in words) [2]: remained stable | bacterial growth, OD600 over time (in words) [5]: grew well

phenylalanine (F)-lysine (K)-phenylalanine (F)-Leucine (L)-polyamidoamine generation 2 (PAMAM G2) [FKFL-G2]
cell density in FE-SEM images (in words) (S. aureus [6]): lowest | cell density in FE-SEM images (in words) (E. coli [7]): lowest | membrane permeabilization, NPN fluorescence (in words) (S. aureus [3]): higher fluorescence than PAMAM G2 | colony formation (in words) (E. coli [8]): strong antibacterial effect | cell viability (NIH3T3 cells; 8.46 µM): about 83% | cell viability (NIH3T3 cells; 16.9 µM): ~48% | Diameter ([9]; concentration 42.3 µM): 158.33 ± 12.59 | Polydispersity (PDI) ([9]; concentration 42.3 µM): 0.628 ± 0.14 | Zeta Potential ([9]; concentration 42.3 µM): 29.63 ± 6.51 | Diameter ([9]; concentration 84.6 µM): 109.83 ± 17.54 | Polydispersity (PDI) ([9]; concentration 84.6 µM): 0.459 ± 0.18 | Zeta Potential ([9]; concentration 84.6 µM): 35.5 ± 6.0 | Diameter ([9]; concentration 169.2 µM): 98.45 ± 6.95 | Polydispersity (PDI) ([9]; concentration 169.2 µM): 0.475 ± 0.03 | Zeta Potential ([9]; concentration 169.2 µM): 38.23 ± 5.74 | membrane permeabilization, NPN fluorescence (in words) (E. coli [4]): higher fluorescence than PAMAM G2 | biofilm formation inhibition rate (E. coli [1]): approximately 98% | bacterial growth, OD600 over time (in words) [2]: decreased over time | Critical aggregation concentration (CAC) [10]: 31.03 µM | colony formation (in words) (S. aureus [11]): strong antibacterial effect
